pEC50, pIC50: −log10 of the molar value.
How the values were obtained:
[1] = tested on: TEAD/YAP promoter element in MCF7-Luc cells; experiment: Cell-based TEAD-promoter transcriptional activity assay (MCF-7 TEAD luciferase); conditions: MCF-7 TEAD luciferase assay, 24 hrs
Excerpt: Luciferase based TEAD-transcriptional cell-based reporter assay: To measure the effect of the TEAD inhibitors disclosed herein on TEAD transcriptional activity in cell-based systems, we employed a stable MCF7 cell line expressing luciferase under a consensus synthetic TEAD/YAP promoter element (MCF7-Luc, BPS Bioscience, Catalog #60618). This MCF7-TEAD-Luc cell line has been extensively validated with both genetic and pharmacological intervention, showing inhibition of luciferase expression and luminescence in response to ablation of the TEAD/YAP pathway. MCF7-Luc cells were plated at 10,000 cells per well in white 384-well plates and settled by a quick spin. The media was MEM (Gibco) supplemented with 10% fetal bovine serum (ExCell), selenium-transferrin-insulin mix (Gibco), 1× non-essential amino acids (Gibco) and sodium pyruvate (Gibco). Cells were allowed to attach and grow overnight (37° C., 5% CO2 in humidified incubator), and test compounds were added the next day. Compounds were dissolved at 1000× fold excess in DMSO and made into 2-fold serial dilution, and added to media at 30 μL of media per well. A DMSO-only well serves a vehicle control. The highest concentration of drug in media was 1,000 nM. Positive control compounds include K975 (pan-TEAD inhibitor) and negative control (Actinomycin). Cells were incubated for 24 hrs with test compounds and positive controls, after which time, the luminescence was measured by the One-Glo luciferase kit (Promega). 30 μL of One-Glo reagent was added to each well and shaken for 8 minutes to lyse the cells. The plates were centrifugated at 1000 RPM for 1 minute to settle all liquid in the well and eliminate bubbles. Luminescence was quantified using an ENVision plate reader (Perkin Elmer). Percent inhibition of luminescence by test compound was expressed as a function of test compound concentration, with the no-test compound DMSO only wells serving as baseline. EC50 values for each compound were calculated with a non-linear asymptotic line fit.

NCI-H23 cells = experiment: Proliferation and cell viability, CellTiter-Glo 2.0 (CTG) assay; format: cell-based; conditions: 144 hrs
NCI-H28 cells = experiment: Proliferation, Cell Titer One assay; format: cell-based; conditions: 6 days
Experimental: (§1) Cell proliferation of a TEAD dependent NF2-null mesothelioma cell line, NCI-H226, and a TEAD-non-dependent mesothelioma cell line, NCI-H28 was assayed using two different protocols: • a) CellTiter-Glo 2.0 (Promega #G9243). The effect of the TEAD inhibitors disclosed herein on cell proliferation was determined in TEAD1-genetically dependent cell line NCI-H226 (responder cell line) and TEAD-independent cell lines (NCI-H23, HEK293T), as non-responder, negative control. Cells were seeded in 96-well plates (Thermo Scientific #167008) in growth media (RPMI-1640, Gibco #61870-010) for NCI-H226 and NCI-H23 or DMEM (Gibco #31966-021, HEK293T) with 10% Heat Inactivated Fetal Bovine Serum (Gibco 10500-064) at 800 (NCI-H226 and HEK-293T) or 2000 (NCI-H23) cells per well at 37° C., 5% CO2, humidified incubator; 24 hours later, fresh growth media containing test compound or DMSO vehicle was added and incubated with the cells for 144 hrs. TEAD inhibitor stocks were made at a 1000× fold excess in DMSO, and a dose response test compound dose range of 10,000 to 0.1 nM was used. Each treatment was carried out in triplicate. After 144 hrs of treatment, relative cell viability numbers were determined using the CellTiter-Glo 2.0 assay following the manufacturer's instructions. Test plates and CellTiter-Glo 2.0 reagent were allowed to equilibrate to room temperature. CellTiter-Glo 2.0 reagent was added at 1:1 reagent to media ratio to the 96-well cell plates, plates were placed on a plate shaker for 2 minutes and then incubated at room temperature for a further 10 minutes to allow complete cell lysis to occur. The mix was then transferred to white, 96-well luminometer assay plates (Greiner Bio One #655075). Luminescence was quantified using a CLARIOStar Plus multi-mode plate reader (BMG Labtech) in luminescence detection mode with the recommended settings (ultra-Glo pre-set: emission 545-50 nm with autofocus and enhanced dynamic range on). Relative cell density was expressed as a function of inhibitor concentration, with respect to DMSO-only control wells. Data where plotted using GraphPad Prism and IC50 values for the biological effect were calculated using the EC50 non-linear fit function using a sigmoidal, 4-parameter logistic, least squares fit with no constraints. • b) Cell Titer One (Promega, #G3582). The effect of the TEAD inhibitors disclosed herein on cell proliferation was also determined using the Promega Substrate Cell Titer Aqueous One Solution Reagent. The TEAD inhibitors were evaluated for the effects on cell proliferation responder (H226) and non-responder negative control cancer cell lines (CAMA1, H28), as well as non-transformed normal human cells (HUVEC, NHDF). Dissociated cells were resuspend in media (depending on cell line, either in DMEM, RPMI, or EMEM all with 10% FBS, with gentamicin as an antibiotic). Cells were seeded at 100 μL/well at 750 cells per well in 96-well plates and allowed to settle and attach. After an incubation of 24 hrs (37° C., 5% CO2, humidified incubator), 100 μL of test compound-containing media was added. A dilution series of 2000× concentrated stock of test compounds was prepared in DMSO, for final concentrations from 0.1 to 10,000 nM. After addition of test compound-containing media, cells were incubated for 6 days at 37° C., 5% CO2, humidified incubators). To measure cell density, 20 μL of Promega Substrate Cell Titer 96 Aqueous One Solution Reagent (Promega, #G3582) to each well was added according to the manufacturer's instructions. Plates were incubated at 37° C. for usually 3-8 hrs, to reach in the control cells (without compound) an OD of 1.5 at 490 nm. The OD was measured using Vmax [Molecular Devices] spectrophotometer plate reader. Media only-wells were used as background controls and cell densities normalized to DMSO vehicle control. ECs were taken as the concentration achieving 50% of maximal growth inhibition.

NCI-H226 cells = experiment: Proliferation, Cell Titer One assay; format: cell-based; conditions: 6 days
Experimental: as §1

[2] = Homo sapiens, NCI-H23, H23-non-responder cell line

Row | SMILES | pEC50 ([1]; Homo sapiens, MCF7) | pIC50 (NCI-H23 cells; [2]) | pIC50 (NCI-H28 cells; Homo sapiens, NCI-H28, 144 h) | pIC50 (NCI-H226 cells; Homo sapiens, NCI-H226, 144 h) | pEC50 [1] | pIC50 (NCI-H23 cells; H23-non-responder cell line) | pIC50 (NCI-H28 cells) | pIC50 (NCI-H226 cells)
1 | C[C@H](NC(=O)c1cnc2c(C3=CC[C@@H](C(F)(F)F)CC3)cccc2c1)c1ncco1 (single isomer, unassigned) [Compound 19, N-(1-(oxazol-2-yl)ethyl)-8-(4-(trifluoromethyl)cyclohex-1-en-1-yl)quinoline-3-carboxamide] | > 6.70 | < 6.00 | < 6.00 | > 6.70 |  |  |  | 
2 | C[C@H](NC(=O)c1cnc2c(C3=CCC(C(F)(F)F)CC3)cccc2c1)c1ccccn1 (stereo partly drawn) [Compound 2, N—((S)-1-(pyridin-2-yl)ethyl)-8-(4-(trifluoromethyl)cyclohex-1-en-1-yl)quinoline-3-carboxamide] | > 6.70 | < 6.00 | < 6.00 | > 6.70 |  |  |  | 

Results, then the molecule that gave them:

Row | pEC50 ([1]; Homo sapiens, MCF7) | pIC50 (NCI-H23 cells; [2]) | pIC50 (NCI-H28 cells; Homo sapiens, NCI-H28, 144 h) | pIC50 (NCI-H226 cells; Homo sapiens, NCI-H226, 144 h) | pEC50 [1] | pIC50 (NCI-H23 cells; H23-non-responder cell line) | pIC50 (NCI-H28 cells) | pIC50 (NCI-H226 cells) | SMILES
3 |  |  |  |  | > 6.70 | < 6.00 | < 6.00 | > 6.70 | C[C@H](NC(=O)c1cnc2c(C3=CC[C@@H](C(F)(F)F)CC3)cccc2c1)c1ncco1 (single isomer, unassigned) [Compound 20, N-(1-(oxazol-2-yl)ethyl)-8-(4-(trifluoromethyl)cyclohex-1-en-1-yl)quinoline-3-carboxamide]
4 |  | < 6.00 | < 6.00 | > 6.70 |  |  |  |  | C[C@H](CO)NC(=O)c1cnc2c(C3=CCC(C(F)(F)F)CC3)cccc2c1 (stereo partly drawn) [Compound 7, N—((R)-1-hydroxypropan-2-yl)-8-(4-(trifluoromethyl)cyclohex-1-en-1-yl)quinoline-3-carboxamide]
5 | > 6.70 | < 6.00 | < 6.00 | > 6.70 |  |  |  |  | O=C(NCc1ncco1)c1cnc2c(C3=CCC(C(F)(F)F)CC3)cccc2c1 (stereo not shown) [Compound 11, N-(oxazol-2-ylmethyl)-8-(4-(trifluoromethyl)cyclohex-1-en-1-yl)quinoline-3-carboxamide]
